Experimental findings from US9822138B2, “Antiviral beta-amino acid ester phosphodiamide compounds” (Merck Sharp & Dohme Corp., priority 2015, dated 2017) are described below.

A short description of data set [1]: Prodrug stability assay in bio-relevant media (FaSSIF with pancreatin; GI tract stability). The data set is classed as in vitro ADME. Particulars: parent prodrug area at 5 h divided by area at 0 h; 37° C.; 0.5 mg/mL pancreatin in FaSSIF. On the procedure: Prodrug Stability Assay in Bio-Relevant Media
The following assay was employed to evaluate the stability of the prodrugs in simulated gastrointestinal tract conditions. Preparation of fasted state simulated intestinal fluid (FaSSIF) using Phares SIF Powder was carried out according to protocols from Phare Drug Delivery AG (Baselland, Switzerland). For sample preparation, 10 μL stock solutions (10 mM) of prodrug substance in DMSO was added to 990 μL of 0.5 mg/mL Pancreatin solution (Fisher CAS#8049-47-6) in FaSSIF. Two samples were prepared for each compound at initial. If the sample was clear solution at the beginning, ran one sample directly as initial by HPLC; if the sample was not clear at starting, diluted the sample by 100% ACN. Put the other sample under 37° C. and observed the sample at 5 h time-point. At 5 h time point, if the sample was clear solution then performed HPLC analysis directly; if it was not clear solution, diluted the sample by 100% ACN and assayed by HPLC. All the samples were vortexed for 3 min and observed before injection. For the diluted samples, the area will be multiplied by a factor when data analysis. The analysis was carried out with an Agilent 1100 series HPLC with autosampler. The column was usually a Poroshell 120 EC-C18, 4.6×50 mm, 2.7 μm. The flow rate was 1.8 mL/min, and the injection volume was 5 or 10 μL. UV detection was in the range 210-400 nm. The mobile phase consisted of solvent A (water plus 10 mM tetrabutylammonium bromide) and solvent B (acetonitrile) with a gradient of 90% solvent A at 0 min changing to 95% solvent B over 6 min, maintained for 1.5 min, then reverting to 90% solvent A over 1.6 min. The area of the parent in prodrug at 5 h time point was divided by the area of the parent in prodrug at 0 h time point, to generate the % claimed parent ratio, which are summarized in Table 5 for GI Tract stability.

Another data set has as its system HIV-1 (H9/IIIB strain). In words: microbe, parasite or virus in culture. Particulars: MT4-GFP cells infected with HIV-1 H9/IIIB, inhibition of reproductive ratio R0. The format is cell-based. As for the experimental part:
Assessing Antiviral Potency in a Multiple Round HIV-1 Infection Assay (Viking Assay)
The antiviral activity of the tenofovir prodrugs of the Examples herein was assessed in an assay that measures the rate of replication of HIV in cell culture, termed the Viking assay (Viral KINetics in Green cells) and performed as follows. HIV-1 replication was monitored using MT4-gag-GFP clone D3 (hereafter designated MT4-GFP), which are MT-4 cells modified to harbor a GFP reporter gene, the expression of which is dependent on the HIV-1 expressed proteins tat and rev. Productive infection of an MT4-GFP cell with HIV-1 results in GFP expression approximately 24 h post-infection. MT4-GFP cells were maintained at 37° C./5% CO2/90% relative humidity in RPMI 1640 supplemented with 10% fetal bovine serum, 100 U/ml penicillin/streptomycin, and 400 μg/ml G418 to maintain the reporter gene. For infections, MT4-GFP cells were placed in the same medium lacking G418 and infected overnight with HIV-1 (H9/IIIB strain) virus at an approximate multiplicity of infection of 0.01 in the same incubation conditions. Cells were then washed and re-suspended in either RPMI 1640 supplemented with 10% or 50% normal human serum (NHS) at 1.6×10^5 cells/mL (10% NHS or 50% NHS, respectively). Compound plates were prepared by dispensing compounds dissolved in DMSO into wells of 384 well poly-D-lysine-coated plates (0.2 μl/well) using an ECHO acoustic dispenser. Each compound was tested in a 10-point serial 3-fold dilution (typical final concentrations: 8.4 μM-0.42 nM). Controls included no inhibitor (DMSO only) and a combination of three antiviral agents (efavirenz, indinavir, an in-house integrase strand transfer inhibitor at final concentrations of 4 μM each). Cells were added ([…]) to compound plates and the infected cells were maintained at 37° C./5% CO2/90% relative humidity.
Infected cells were quantified at two time points, ˜48 h and ˜72 h post-infection, by counting the number of green cells in each well using an Acumen eX3 scanner. […] Inhibition of R0 is calculated for each well, and IC50s determined by non-linear 4-parameter curve fitting.

Setting [2] is: Human immunodeficiency virus 1, 10% normal human serum, read-out: Viking, IC50 (10% NHS).
[3] abbreviates: Human immunodeficiency virus 1, 50% normal human serum, read-out: Viking, IC50 (50% NHS).

SMILES strings stand for the structures. Where two headings read alike, the source gives them in different places.

Regarding `CC(C)OC(=O)C[C@H](N[P@](=O)(CO[C@H](C)Cn1cnc2c(N)ncnc21)NC(C)(C)C(=O)OC(C)C)C(C)C` [Example 25B], the “GI Tract stability” value in data set [1] was 100%. Besides, the results for the IC50 in the data set with HIV-1 (H9/IIIB strain) (setting [2]) and in the data set with HIV-1 (H9/IIIB strain) (setting [3]) were 590 nM and above 2000 nM, respectively.

`CC(C)OC(=O)C[C@@H](C)NP(=O)(CO[C@H](C)Cn1cnc2c(N)ncnc21)N[C@H](C)C(=O)OC1CCC1` (single isomer, unassigned) [Example 18A]: in data set [1], the “GI Tract stability” value is 99.2%. The figures for the IC50 with HIV-1 (H9/IIIB strain) (setting [2]) and with HIV-1 (H9/IIIB strain) (setting [3]) were 65 nM and 134 nM, respectively.

In the case of `CC(C)COC(=O)[C@H](C)NP(=O)(CO[C@H](C)Cn1cnc2c(N)ncnc21)NC[C@H](C)C(=O)OC(C)C` (single isomer, unassigned) [Example 14B], the “GI Tract stability” value in data set [1] was determined as 60.6%. Also, the IC50 in the data set on HIV-1 (H9/IIIB strain) (10% normal human serum, read-out: Viking, IC50 (10% NHS)) was determined as 15.7 nM; with HIV-1 (H9/IIIB strain) (50% normal human serum, read-out: Viking, IC50 (50% NHS)), 51.6 nM.
